Measured values: US20220054493A1, “INHIBITORS OF NGAL PROTEIN” (INSERM (INSTITUT NATIONAL DE LA SANTÉ ET DE LA RECHERCHE …, priority 2019, published 2022)

Tests used:
CaCo2 cell line = assay: Bi-CaCo2 permeability assay; assay type: in vitro ADME, human
Description: (§1) The Caco-2 Permeability assay uses an established method for predicting the in vivo absorption of drugs across the gut wall. The transport rate across the CaCo2 cell line is measured. This cell line has a human colon carcinoma origin and resembles to the intestinal epithelia (a polarised monolayer with microvilli and intercellular tight junctions).
(§2) Bidirectional transport (apical to basolateral (A-B) and basolateral to apical (B-A)) across the cell monolayer were determined allowing to calculate the efflux ratio (an indicator as to whether a compound undergoes active efflux).

NGAL [1] = molecular target: T1, NGAL (Homo sapiens, UniProt P80188); assay: NGAL-induced IL6 secretion in human cardiac fibroblasts (ELISA); assay type: cell-based; conditions: for Activity: NGAL-induced IL6 secretion (NGAL 10 ng/ml), Control = 1.00 ± 0.03
T1 construct: purchased R&D Systems
Description: (§3) Cell Culture Human cardiac fibroblasts (primary culture) were obtained from Promocell and maintained in medium (Fibroblast Media 3). Cells were cultured according to the manufacturer's instructions and used between passages 5 and 7. Cells were stimulated with aldosterone (10^-8 M, Sigma) or recombinant hNGAL (500 ng/mL, R&D Systems) for 24 h for protein analysis. Mouse kidney fibroblasts (MKF), were isolated from Wild Type (WT) mice. Briefly, mice 7 to 8 weeks were sacrificed by cervical dislocation and kidneys were cleaned and rinsed in cold DPBS (Dulbecco's Phosphate-Buffered Saline). The renal cortex was minced and incubated in Dulbecco's modified eagle medium/Nutrient mixture F-12 (DMEM/F12, Sigma) containing 1 mg/mL collagenase A (Roche) during 25 minutes at 37° C. The digestion was inactivated by adding culture medium (DMEM/F12+10% FBS) then the cell suspension was passed through a 100-μm cell strainer. After centrifugation, the pellet (containing MKF) was diluted with culture medium then plated in 75 cm^2 culture flask. After 24 hours MKF were washed with DPBS before replacement of fresh culture medium. Thereafter, culture medium was changed every 48 hours. Once 70-80% confluent, MKF were trypsinized and plated in 12 or 6-well plates. For experimental use, MKF were starved with culture medium containing only 3% FBS. MKF were treated with mNGAL (500 ng/mL, R&D Systems) for 24 h for gene expression analysis.
(§4) NGAL, IL6 and collagen type I concentrations were measured in cardiac tissue and cell supernatants, respectively, by ELISA according to the manufacturer's instructions (R&D Systems).
The inhibitory activity of the compounds was evaluated on the NGAL-induced IL6 secretion (NGAL 10 ng/ml) in human cardiac fibroblasts.
Inhibitory activities of 23 second generation compounds derived from GPZ614741 and GPZ058225 were evaluated on the NGAL-induced IL6 secretion (NGAL 10 ng/ml) in human cardiac fibroblasts.

NGAL [2] = molecular target: T1, NGAL; assay: NGAL-induced Col 1 secretion in human cardiac fibroblasts (ELISA); assay type: cell-based; conditions: FIGS. 1 and 2 panel B
Description: as §3, with “After 24 hours MKF were washed with DPBS before replacement of fresh culture medium. Thereafter, culture medium was changed every 48 hours. Once 70-80% confluent, MKF were trypsinized and plated in 12 or 6-well plates. For experimental use, MKF were starved with culture medium containing only 3% FBS. MKF were treated with mNGAL (500 ng/mL, R&D Systems) for 24 h for gene expression analysis.” left out
as §4
(§5) The inhibitory activity of the compounds was evaluated on the NGAL-induced IL6 secretion (NGAL 10 ng/ml) in human cardiac fibroblasts. […]

NGAL [3] = molecular target: T1, NGAL; assay: NGAL-induced profibrotic marker synthesis in human cardiac fibroblasts (western blot); assay type: cell-based; conditions: FIGS. 1 and 2 panel C
Description: (§6) Cell Culture Human cardiac fibroblasts (primary culture) were obtained from Promocell and maintained in medium (Fibroblast Media 3). Cells were cultured according to the manufacturer's instructions and used between passages 5 and 7. Cells were stimulated with aldosterone (10^-8 M, Sigma) or recombinant hNGAL (500 ng/mL, R&D Systems) for 24 h for protein analysis. Mouse kidney fibroblasts (MKF), were isolated from Wild Type (WT) mice. Briefly, mice 7 to 8 weeks were sacrificed by cervical dislocation and kidneys were cleaned and rinsed in cold DPBS (Dulbecco's Phosphate-Buffered Saline). The renal cortex was minced and incubated in Dulbecco's modified eagle medium/Nutrient mixture F-12 (DMEM/F12, Sigma) containing 1 mg/mL collagenase A (Roche) during 25 minutes at 37° C. […]
(§7) Total protein aliquots of 20 μg were prepared from cardiac homogenates and electrophoresed on SDS polyacrylamide gels and transferred to Hybond-c Extra nitrocellulose membranes (Amersham Biosciences). […] After densitometric analyses, optical density values were expressed as arbitrary units. Results are expressed as an n-fold increase over the values of the control group in densitometric arbitrary units.
as §5

[4] = system: aldosterone-induced profibrotic marker synthesis; assay: Aldosterone-induced profibrotic marker synthesis in human cardiac fibroblasts; assay type: cell-based; conditions: FIGS. 1 and 2 panel D
Description: as §6, with “Saline).” for “Saline). The renal cortex was minced and incubated in Dulbecco's modified eagle medium/Nutrient mixture F-12 (DMEM/F12, Sigma) containing 1 mg/mL collagenase A (Roche) during 25 minutes at 37° C.”
as §7, §4, §5

[5] = system: isolated hepatocytes from swiss mice; assay: Hepatotoxicity, MTT colorimetric assay; assay type: cell-based
Description: (§8) Two specific toxicity assays have been performed to assess hepatoxicity and cardiotoxicity. Hepatotoxicity was evaluated in isolated hepatocytes from swiss mice and determined by the MTT colorimetric assay. Cardiotoxicity was evaluated using the commercially available Predictor hERG fluorescence polarization kit (Thermo Fisher Scientific). Several ADME assays have been carried out on the compounds generated throughout the project. The following experiments were undertaken: Stability in human microsomes, binding to human plasma protein, and CYP3A4 inhibition assay (Vivid CYP3A4 assay, Thermo Fisher Scientific). Physico-chemical properties were also assessed such as aqueous solubility and chemical stability.

hERG channel = molecular target: T2, hERG channel (Homo sapiens, UniProt Q12809); assay: Cardiotoxicity, Predictor hERG fluorescence polarization kit; assay type: binding
T2 construct: purchased Thermo Fisher Scientific
Description: as §8

human microsomes = assay: Stability in human microsomes; assay type: in vitro ADME
Description: as §8

[6] = Binding to human plasma protein; assay type: in vitro ADME; conditions: human, human plasma protein; read-out: hPPB (converted)
Description: as §8

human plasma protein = assay: Binding to human plasma protein; assay type: in vitro ADME
Description: as §8

CYP3A4 = molecular target: T3, CYP3A4 (Homo sapiens, UniProt P08684); assay: CYP3A4 inhibition assay (Vivid CYP3A4 assay); assay type: in vitro ADME
T3 construct: purchased Thermo Fisher Scientific
Description: as §8

Aqueous solubility = assay type: physicochemical
Description: as §8

Chemical stability = assay type: physicochemical
Description: as §8

[7] = Bi-CaCo2 permeability assay; assay type: in vitro ADME, human; conditions: human, Caco-2; efflux ratio
Description: as §1, §2

NGAL [8] = molecular target: T1, NGAL; assay: NGAL-induced proliferation of human cardiac fibroblast cells (MTT); assay type: cell-based; conditions: NGAL 10 ng/ml; FIG. 3
Description: as §3
Cell proliferation was assessed using the MTT Proliferation Assay (Sigma).
Results are shown on FIG. 3.

T1 sequence (P80188 21-198): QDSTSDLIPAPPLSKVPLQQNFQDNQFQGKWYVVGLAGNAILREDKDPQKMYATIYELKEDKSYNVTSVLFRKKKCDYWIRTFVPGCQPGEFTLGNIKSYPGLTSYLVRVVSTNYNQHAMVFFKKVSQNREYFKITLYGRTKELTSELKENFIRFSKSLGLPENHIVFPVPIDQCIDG
T2 sequence (Q12809 whole entry): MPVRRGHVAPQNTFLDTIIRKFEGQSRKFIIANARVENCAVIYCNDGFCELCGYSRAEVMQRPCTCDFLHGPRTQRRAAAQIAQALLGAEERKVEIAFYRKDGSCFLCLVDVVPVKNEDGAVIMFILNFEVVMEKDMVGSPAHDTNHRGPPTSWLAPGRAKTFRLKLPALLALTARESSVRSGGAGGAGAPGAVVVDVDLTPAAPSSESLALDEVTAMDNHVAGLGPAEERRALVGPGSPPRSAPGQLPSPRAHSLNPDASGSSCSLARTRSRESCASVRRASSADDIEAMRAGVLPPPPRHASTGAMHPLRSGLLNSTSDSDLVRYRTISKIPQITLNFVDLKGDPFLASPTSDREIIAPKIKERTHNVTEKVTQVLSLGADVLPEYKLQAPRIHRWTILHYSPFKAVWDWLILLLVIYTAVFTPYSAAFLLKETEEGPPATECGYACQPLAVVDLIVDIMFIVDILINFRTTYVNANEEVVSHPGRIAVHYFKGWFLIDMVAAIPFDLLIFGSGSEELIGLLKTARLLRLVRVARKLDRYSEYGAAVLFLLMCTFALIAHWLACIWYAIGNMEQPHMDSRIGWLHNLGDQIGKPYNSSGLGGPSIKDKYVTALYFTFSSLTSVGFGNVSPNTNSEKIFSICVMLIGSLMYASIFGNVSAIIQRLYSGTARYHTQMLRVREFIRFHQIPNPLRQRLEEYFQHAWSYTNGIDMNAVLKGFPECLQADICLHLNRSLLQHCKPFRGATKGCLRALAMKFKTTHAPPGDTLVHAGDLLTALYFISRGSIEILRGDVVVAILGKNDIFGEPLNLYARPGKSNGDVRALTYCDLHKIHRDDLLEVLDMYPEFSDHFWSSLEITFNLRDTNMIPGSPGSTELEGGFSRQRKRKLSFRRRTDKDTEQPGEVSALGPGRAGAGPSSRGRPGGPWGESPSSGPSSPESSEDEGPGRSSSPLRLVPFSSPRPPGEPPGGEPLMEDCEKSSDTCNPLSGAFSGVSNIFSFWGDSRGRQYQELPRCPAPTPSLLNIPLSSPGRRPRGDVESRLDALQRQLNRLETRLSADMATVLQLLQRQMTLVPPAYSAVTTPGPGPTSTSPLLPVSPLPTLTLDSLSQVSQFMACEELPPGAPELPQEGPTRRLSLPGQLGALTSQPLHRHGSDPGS
T3 sequence (P08684 whole entry): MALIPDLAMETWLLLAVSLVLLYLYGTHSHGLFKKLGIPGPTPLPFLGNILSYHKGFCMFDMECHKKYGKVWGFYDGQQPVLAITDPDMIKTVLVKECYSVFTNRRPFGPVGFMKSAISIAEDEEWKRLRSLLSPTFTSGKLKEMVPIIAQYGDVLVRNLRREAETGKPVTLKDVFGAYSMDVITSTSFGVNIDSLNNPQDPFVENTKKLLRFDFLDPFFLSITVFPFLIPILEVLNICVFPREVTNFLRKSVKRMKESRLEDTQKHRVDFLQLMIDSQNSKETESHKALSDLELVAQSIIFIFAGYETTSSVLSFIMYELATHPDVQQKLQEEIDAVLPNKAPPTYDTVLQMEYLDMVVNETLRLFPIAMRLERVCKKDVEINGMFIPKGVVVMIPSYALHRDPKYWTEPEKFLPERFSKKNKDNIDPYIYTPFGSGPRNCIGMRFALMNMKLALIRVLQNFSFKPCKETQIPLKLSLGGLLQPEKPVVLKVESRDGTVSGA

## CC(C)NC[C@H](O)COc1cccc2ccccc12 (racemic) [propanolol, reference compound]
CaCo2 cell line; efflux ratio
  Ratio: 1.56

## CCS(=O)(=O)c1ccc2oc(SCc3cn4c(C)cc(C)nc4n3)nc2c1 [GPZ058225]
NGAL [1]; NGAL 10 ng/ml, FIGS. 1 and 2 panel A
  NGAL-induced IL6 secretion: inhibited
NGAL [2]
  Col 1 secretion (NGAL-induced): inhibited
NGAL [3]
  NGAL-induced profibrotic marker (col1, col III, fibronectin, Gal3, OPN) synthesis: inhibited
[4]
  aldosterone-induced profibrotic marker (Col1, CT-1, or IL6) synthesis: inhibited
[5]; MTT up to 0.1 mM
  hepatotoxicity (toxicity for hepatocytes): > 0.1 mM
[5]; cell wrapped over two lines: No tox up / 100 uM
  Hepatotoxicity: No tox up
hERG channel
  cardiotoxicity (hERG predictor assay): did not block hERG channel
hERG channel; 100 = no toxicity
  Cardiotoxicity % (100 = no toxicity): 101.73 ± 4.1%
Human microsomes; after 2 h
  microsomes degradation, left after 2 h: very stable
Human microsomes; human microsomes
  Micro Stability: 100%
[6]
  fraction unbound: 0.109
Human plasma protein
  PPB (binding to plasma proteins): within acceptance range
CYP3A4
  inhibited the enzyme activity (CYP3A4) in a competition assay: 32%
CYP3A4; human, recombinant CYP3A4 (Vivid CYP3A4 assay kit), 100 = no inhibition, read-out: CyP 3A4 Inhibition % (100 = no inhibition)
  Activity: 68.1 ± 1.52%
Aqueous solubility
  Aquous solubility: 63.46%
  solubility in aqueous buffers (solubility test): 63%
Chemical stability
  Chemical Stability: 92.2%
  stability to acidic pH / digestive content: very stable
[7]
  efflux ratio: 2.11
CaCo2 cell line; compared with reference compound propranolol
  permeability through the intestinal epithelia (in words): quite high

## O=C(Nc1nc2cc(F)c(F)cc2s1)c1cn2cccnc2n1 [GPZ278618]
NGAL [1]
  Activity: 0.86 ± 0.02

## CC(=O)c1ccc(S(=O)(=O)Nc2ccccc2-n2cccn2)cc1 [GPZ478519]
NGAL [1]
  Activity: 0.69 ± 0.02

## CC(=O)c1cccc(S(=O)(=O)NCc2ccccc2Cn2cccn2)c1 [GPZ505884]
NGAL [1]
  Activity: 0.83 ± 0.02

## Clc1c(SCc2nc3ccccc3s2)nc2ncccn12 [GPZ564849]
NGAL [1]
  Activity: 0.85 ± 0.05

## O=S(=O)(NCc1ccccc1-n1cccn1)c1ccccc1 [GPZ595600]
NGAL [1]
  Activity: 0.92 ± 0.04

## Nc1ccc(S(=O)(=O)Nc2ccnn2-c2ccccc2)cc1 [GPZ624624, Sulfaphenazole]
NGAL [8]
  NGAL-induced proliferation of human cardiac fibroblast cells: Inhibitory effects

## CC(=O)c1cccc(S(=O)(=O)NCc2ccccc2-c2ccc(CN(C)C)cc2)c1 [GPZ642292]
NGAL [1]
  Activity: 0.64 ± 0.02

## CCN(CC)CCn1c(-c2ccccc2)noc1=N [GPZ646083, Imolamine]
NGAL [8]
  NGAL-induced proliferation of human cardiac fibroblast cells: Inhibitory effects

## CC(=O)c1ccc(S(=O)(=O)NC(=O)NC2CCCCC2)cc1 [GPZ706277, Acetohexamide]
NGAL [8]
  NGAL-induced proliferation of human cardiac fibroblast cells: Inhibitory effects

## Cc1cc(C)n2cc(CSc3nc4ccccc4[nH]3)nc2n1 [GPZ743042]
NGAL [1]
  Activity: 0.94 ± 0.03

## N#Cc1cccc(S(=O)(=O)NCc2cccc(-n3cccn3)c2)c1 [GPZ778195]
NGAL [1]
  Activity: 0.88 ± 0.04

## CC(=O)c1cccc(S(=O)(=O)NCc2ccccc2-c2ccsc2)c1 [GPZ863205]
NGAL [1]
  Activity: 0.93 ± 0.03

## CCN1CCN(Cc2ccccc2CNS(=O)(=O)c2cccc(C(C)=O)c2)CC1 [GPZ913629]
NGAL [1]
  Activity: 0.93 ± 0.02
